Reference: US20230029496A1, “AMINO ACID ALTERNATIVE CURING SYSTEM” (THE TEXAS A&M UNIVERSITY SYSTEM, priority 2019, published 2023)
“And” between values parts separate entries of the source, which are not always exact repeats. Identical values can stand only once. Marks after values point to notes of the source that are not given here.

System: Nitric Oxide Synthase (NOS) system
Experiment: Cure efficiency (NO-heme, total heme, nitrosylation) of cooked pre-rigor pork semimembranosus muscle (first study)
Type: biochemical
Settings: for NO-Heme / Total Heme: ppm acid hematin
Description: Cooked meat samples were subjected to analysis to determine the degree of nitrosylation of residual nitrite, the procedure set forth by Pearson and Tauber (Pearson and Tauber, 1984) from Hornsey's procedure for analyzing small samples was used to analyze sample supernatant and pellet. 2 mL or 2 g of the samples were treated with acetone to measure NO-heme concentration and separately 2 mL or 2 g of the samples were treated with acetone and hydrochloric acid to measure total heme concentration in a 1 cm quartz cuvette. NO-heme concentration (ppm acid hematin) was determined using a spectrophotometer (2100 Series Spectrophotometer, Unico, Dayton, N.J.) by reading samples at 540 nm. Total heme concentration (ppm acid hematin) was determined at 640 nm determined nitrosylation, which indicated how well varying concentrations of L-arginine affected the NOS system's ability to cure, known as cure efficiency. This procedure measured how much myoglobin was converted to nitroso-hemochromagen, the cured meat color, and the level of conversion compared to all pigmentation within the sample.
Curing efficiency or nitrosylation is calculated as the percentage conversion of NO-heme to total heme. Cure efficiency is the percentage of total pigment converted to nitroso pigment and indicated the degree of cured color fading. Cured meat pigment is extracted in a solution of 80% acetone and 20% water that extracts cured pigment heme. Total heme pigments are extracted using an acidified acetone solution that extracts heme from all heme proteins as first used by Hornsey. NO-heme concentration (as ppm acid hematin)=sample A540×290 determines the specific cure color pink from the rest of the heme pigmentation of the sample. Total heme concentration (ppm acid hematin)=sample A640×680 determines the total heme pigmentation of the sample. Cure efficiency (%)=(ppm of nitrosoheme […]ppm of total pigment)×100 and indicates how much of the product is cured and holds the cured pink stability once cooked.
Procedures • 1. Do all procedures in subdued light to reduce fading of pigment. • 2. Weigh out 2.0 g minced lean meat sample in a 50-mL polypropylene centrifuge tube. • 3. Pipette 9.0 mL acetone-a into 50-mL tube, to obtain acetone concentration of 80%. • 4. Mix thoroughly with a probe-type homogenizer or a glass rod. • 5. Cap the tube to minimize evaporation of acetone, and mix by gentle swirling. • 6. Let stand 10 minutes in the dark, then filter through medium-fast filter paper into a glass test tube. • 7. Transfer filtrate into a 1-cm quartz cuvette and read absorbance at 540 nm. (Avoid use of disposable plastic cuvettes. They become opaque upon exposure to acetone). Calculate nitroso pigment concentration as previously described. • 8. Prepare another 2.0-g sample, using acetone-b. • 9. Macerate and hold 1 hour in the dark before filtering. • 10. Filter the extract as before, and read absorbance at 640 nm. Calculate total pigment and cure efficiency as previously described.

[1] = 2 mM L-arginine, cooked supernatant
[2] = 4 mM L-arginine, cooked supernatant
[3] = 8 mM L-arginine, cooked supernatant
[4] = 16 mM L-arginine, cooked pellet
[5] = 16 mM L-arginine, cooked supernatant
[6] = 32 mM L-arginine, cooked pellet
[7] = 32 mM L-arginine, cooked supernatant

## N=C(N)NCCC[C@H](N)C(=O)O [L-arginine]
2 mM L-arginine, cooked pellet
  Nitrosylation (Cure Efficiency): 46.51% and 46.51^ab %
  NO-Heme: 8.70^a ppm
  Total Heme: 64.77 ppm and 64.77^a ppm
[1]
  Nitrosylation (Cure Efficiency): 125.52^a %
  NO-Heme: 43.94^a ppm
  Total Heme: 24.22 ppm and 24.22^ab ppm
4 mM L-arginine, cooked pellet
  Nitrosylation (Cure Efficiency): 74.27% and 74.27^ab %
  NO-Heme: 7.77^a ppm
  Total Heme: 35.87^ab ppm
[2]
  Nitrosylation (Cure Efficiency): 155.68^a %
  NO-Heme: 21.09^a ppm
  Total Heme: 34.17 ppm and 34.17^ab ppm
8 mM L-arginine, cooked pellet
  Nitrosylation (Cure Efficiency): 70.13% and 70.13^ab %
  NO-Heme: 9.33^a ppm
  Total Heme: 33.44^ab ppm
[3]
  Nitrosylation (Cure Efficiency): 108.99^a %
  NO-Heme: 16.44^a ppm
  Total Heme: 70.38 ppm and 70.38^a ppm
[4]
  Nitrosylation (Cure Efficiency): 97.82% and 97.82^ab %
  NO-Heme: 11.69^a ppm
  Total Heme: 36.04^ab ppm
[5]
  Nitrosylation (Cure Efficiency): 110.11^a %
  NO-Heme: 16.73^a ppm
  Total Heme: 20.14 ppm and 20.14^ab ppm
[6]
  Nitrosylation (Cure Efficiency): 156.72% and 156.72^a %
  NO-Heme: 13.05^a ppm
  Total Heme: 54.40^ab ppm
[7]
  Nitrosylation (Cure Efficiency): 50.48^a %
  NO-Heme: 16.86^a ppm
  Total Heme: 31.67 ppm and 31.67^ab ppm
Cooked supernatant, at all L-arginine concentrations
  cure efficiency: over 100%
